Reference: US20210221843A1, “EPHA2 AGONISTS AND USES THEREOF” (THE REGENTS OF THE UNIVERSITY OF CALIFORNIA, priority 2018, published 2021)
Entries after “also recorded” stand apart in the source; their conditions may differ. Starred links: 1 amine or outer side, 2 acyl side, 3 side chain; linkers in the order of their positions; H or OH if unused. Non-standard residues stand in square brackets, D forms with d. Residues, ends and D or L forms follow the SMILES beside them. *: point of attachment. Dap(4-FSB) = (S)-2-amino-3-(4-(fluorosulfonyl)benzamido)propanoic acid, O=C(NC[C@H](N[*:1])C(=O)[*:2])c1ccc(S(=O)(=O)F)cc1; 7‑MethoxyBenzofuranoic = N-terminus modified by (7-methoxybenzofuran-2-yl)-methanone, COc1cccc2cc(C(=O)*)oc12; Phenoxyacetyl(3-Cl,4-F) = O=C(COc1ccc(F)c(Cl)c1)*; Dap = NC[C@H](N)C(=O)O

Key:
EphA2 [1] = target: T1, EphA2 (Homo sapiens, UniProt P29317); assay: Western blot of total EphA2 and pEphA2 S897 in BxPC3 cells; assay type: cell-based; design: endogenous in cells; host or cells: BxPC3; PANC-1; details: 3 hours treatment
T1 sequence (P29317 24-976): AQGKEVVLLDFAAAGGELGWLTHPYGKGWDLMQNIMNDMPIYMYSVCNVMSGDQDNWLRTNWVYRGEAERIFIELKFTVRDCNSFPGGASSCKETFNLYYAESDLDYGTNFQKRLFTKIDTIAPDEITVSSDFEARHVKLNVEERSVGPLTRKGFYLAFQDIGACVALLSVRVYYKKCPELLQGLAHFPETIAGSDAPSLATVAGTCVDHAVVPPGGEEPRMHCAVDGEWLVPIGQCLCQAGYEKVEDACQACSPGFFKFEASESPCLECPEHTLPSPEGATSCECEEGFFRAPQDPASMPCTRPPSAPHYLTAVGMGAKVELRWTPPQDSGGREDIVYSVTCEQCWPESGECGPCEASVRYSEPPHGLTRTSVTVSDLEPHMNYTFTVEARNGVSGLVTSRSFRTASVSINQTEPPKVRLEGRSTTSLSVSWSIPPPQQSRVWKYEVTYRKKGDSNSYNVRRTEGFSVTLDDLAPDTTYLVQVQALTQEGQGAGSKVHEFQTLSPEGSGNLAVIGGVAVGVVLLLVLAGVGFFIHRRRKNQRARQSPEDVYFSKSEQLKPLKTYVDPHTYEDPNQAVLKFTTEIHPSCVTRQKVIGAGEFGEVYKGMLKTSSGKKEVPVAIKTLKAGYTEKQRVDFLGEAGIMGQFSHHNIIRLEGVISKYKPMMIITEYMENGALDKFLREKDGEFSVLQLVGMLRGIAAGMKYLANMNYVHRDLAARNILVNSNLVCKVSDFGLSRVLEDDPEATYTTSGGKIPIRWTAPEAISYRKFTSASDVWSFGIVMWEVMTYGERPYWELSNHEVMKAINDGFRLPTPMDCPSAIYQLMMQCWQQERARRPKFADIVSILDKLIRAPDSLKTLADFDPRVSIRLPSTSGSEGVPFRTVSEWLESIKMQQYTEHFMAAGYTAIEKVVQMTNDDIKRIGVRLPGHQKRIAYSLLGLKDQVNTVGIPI

EphA2-LBD = EphA2-LBD (Homo sapiens, UniProt P29317); assay: DELFIA displacement assay (displacement of biotinylated 123B9 from EphA2-LBD)
Chain of EphA2-LBD (P29317 28-206 limits assumed): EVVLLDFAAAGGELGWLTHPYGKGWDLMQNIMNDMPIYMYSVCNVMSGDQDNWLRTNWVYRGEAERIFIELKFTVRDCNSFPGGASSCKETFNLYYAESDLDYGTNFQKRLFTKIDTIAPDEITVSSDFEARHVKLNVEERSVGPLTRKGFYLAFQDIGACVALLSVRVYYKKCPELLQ

BxPC3 cells [2] = assay: Time-lapse scratch wound cell-migration assay; assay type: cell-based; details: 2.5 μM
Procedure: Cell-migration assay: Cells were cultured in 96-well ImageLock plates (Sartorius). Next day, wells were scratched using the WoundMaker (Sartorius). Subsequently, cells were washed twice with PBS and treated with the indicated compounds in RPMI-1640 complete media. Subsequently, cells were imaged every 6 h using IncuCyte S3 (Sartorius) and relative wound areas were analyzed using the algorithm of the imager cell migration software module.

EphA2 [3] = target: T1, EphA2; assay: Western blot of total EphA2 and pEphA2 S897 in PANC-1 cells; assay type: cell-based; design: endogenous in cells; host or cells: PANC-1
BxPC3 cells [4] = assay: Time-lapse scratch wound cell invasion assay (Matrigel); assay type: cell-based; details: scratch wound through Matrigel, 2.5 μM
Procedure: Cell invasion assay: Matrigel (Corning) was diluted in serum-free RPMI-1640 media (1:100), 50 µL of the mixture was added to ImageLock plate and incubated at 37° C. for 2 h. Next, excess media were aspirated and cells in complete media were plated and left overnight in humidified cell culture incubator. The following day, cell culture plate was aspirated, scratched with the WoundMaker, and washed twice with PBS. Subsequently, the plate was coated with a mixture of Matrigel and cold serum-free RPMI-1640 (1:1) and left in the incubator to solidify for 30 min. Finally, 100 µL of 1.5× compound-media mixture was added to the plate at various concentrations. The healing of the scratches was imaged and calculated similar to the migration assay.

EphA2 [5] = target: T1, EphA2; assay: Immunofluorescence of EphA2 cellular localization in BxPC3 cells; assay type: cell-based; design: endogenous in cells; host or cells: BxPC3; PANC-1; details: 30 min treatment, 1 μM 135H12
Procedure: FIG. 4A-D. Dimeric EphA2 agonists degrade EphA2 receptors in cancer cells. […] BxPC3 cell line was treated with the indicated doses for 3 hours, then cells were lysed and Western blot studies were performed. […] BxPC3 or PANC-1 cells were treated and lysed similar to the previous Western blot. […] EphrinA1-Fc is a clustered natural ligand and used as a positive control. […] Moreover, the receptor band disappeared after 1 hour of treatment. […] Cells were immunostained with EphA2 antibody (light) and nuclei were counterstained with DAPI (dark). […] Images were acquired using confocal Inverted Zeiss 880.
In chamber slides, cells were plated and allowed to adhere overnight in humidified cell culture incubators. The following day, cells were treated with the indicated ligands for 30 min. Subsequently, cells were washed with PBS and fixed with 4% Formaldehyde (Polysciences, Inc.), then blocked and permeabilized with 5% FBS and 0.3% Triton™ X-100 for 1 h. Next, wells were washed and stained with anti-EphA2 antibody, followed by three washes and further incubation with Alexafluor goat anti-mouse 488 secondary antibody (ThermoFisher). Cells were counterstained with DAPI and mounted with Prolong Diamond Antifade (ThermoFisher). Images were acquired with confocal microscope Zeiss 880 Airyscan and processed using Adobe Photoshop CC.

EphA2 [6] = target: T1, EphA2; assay: EphA2 receptor phosphorylation assay in HEK293 cells (immunoprecipitation, anti-phosphotyrosine blot); assay type: cell-based; design: endogenous in cells; PANC-1; details: various doses
EphA2 [7] = target: T1, EphA2; assay: Covalent gel shift with EphA2; assay type: biochemical; details: compounds incubated 10:1 for 2 hours at room temperature
Procedure: Covalent adduct formation of EphA2 with 147A5 and 147A6, respectively, were confirmed by covalent gel shift. Compounds were incubated 10:1 for 2 hours at room temperature.

Q: Which “degradation of total EphA2 and dephosphorylation of pEphA2 S897” value (shortened to “degradation”) (EphA2 [1]) does the source give for CC(C)[C@H](NC(=O)[C@H](CO)NC(=O)[C@H](CC(=O)O)NC(=O)[C@@H]1CCCN1C(=O)[C@H](Cc1ccc(O)cc1)NC(=O)[C@H](C)NC(=O)[C@H](CO)NC(=O)COc1ccc(F)c(Cl)c1)C(=O)N1C[C@H](O)C[C@H]1C(=O)N[C@@H](Cc1ccc(Cl)cc1)C(=O)N[C@@H](CCCNC(=N)N)C(=O)N1CCC[C@H]1C(=O)NCC(=O)NCCCC[C@H](NC(=O)CNC(=O)[C@@H]1CCCN1C(=O)[C@H](CCCNC(=N)N)NC(=O)[C@H](Cc1ccc(Cl)cc1)NC(=O)[C@@H]1C[C@@H](O)CN1C(=O)[C@@H](NC(=O)[C@H](CO)NC(=O)[C@H](CC(=O)O)NC(=O)[C@@H]1CCCN1C(=O)[C@H](Cc1ccc(O)cc1)NC(=O)[C@H](C)NC(=O)[C@H](CO)NC(=O)COc1ccc(F)c(Cl)c1)C(C)C)C(N)=O [135G4, [(4F,3ClPhOCH2CO)SAYPDSV(HYP)(4ClPhe)RPG]2-K-CONH2] here?
A: Its value is “degraded total EphA2 receptor and phosphorylated pEphA2 S897 at nanomolar concentrations; also recorded: remarkably active in inducing receptor degradation and dephosphorylation of Ser897-EphA2 at sub-micromolar concentrations”.

Q: For CC(C)[C@H](NC(=O)[C@H](CC(=O)O)NC(=O)[C@H](CC(=O)O)NC(=O)[C@@H]1CCCN1C(=O)[C@H](Cc1ccc(O)cc1)NC(=O)[C@H](C)NC(=O)[C@H](CN)NC(=O)COc1ccc(F)c(Cl)c1)C(=O)N1CCC[C@H]1C(=O)N[C@@H](Cc1ccccc1)C(=O)N[C@@H](CCCNC(=N)N)C(=O)N1CCC[C@H]1C(N)=O [135F11] ({Phenoxyacetyl(3-Cl,4-F)}-[Dap]AYPDDVPFRP-NH2), which IC50 (EphA2-LBD) is on record?
A: The IC50 was over 200 µM.

Q: For COc1ccc(C[C@H](NC(=O)[C@H](C)NC(=O)[C@H](CC(C)C)NC(=O)c2oc3c(OC)c(OC)ccc3c2C)C(=O)N2CCC[C@H]2C(=O)N[C@@H](CC(=O)O)C(=O)N[C@@H](C)C(=O)N[C@H](C(=O)N2C[C@H](O)C[C@H]2C(=O)N[C@@H](Cc2ccc(Cl)cc2)C(=O)N[C@@H](CCCNC(=N)N)C(=O)N2CCC[C@H]2C(N)=O)C(C)C)cc1 [135H11, XLA(4MeTyr)PDAV(Hyp)(4ClPhe)RP-CONH2], which “inhibition of cell migration” value (BxPC3 cells [2]) is on record?
A: Its value is “inhibit cell migration”.

Q: What about the “degradation” value (EphA2 [3]) of the same molecule?
A: Its value is “more effective than the monomer 123B9; also recorded: orders of magnitude more effective than 123B9 in causing EphA2 degradation and suppressing oncogenic pSer897-EphA2”.

Q: What about the “inhibition of cell invasion” value (BxPC3 cells [4]) of the same molecule?
A: The value was “inhibited cell invasion; also recorded: equally effective in suppressing cell invasion at low micromolar concentration”.

Q: And the EphA2 cellular localization (EphA2 [5])?
A: The EphA2 cellular localization was “located at the cell membrane; also recorded: fluorescence localized at the cell membrane”.

Q: What about the “degradation” value (EphA2 [1]) of the same molecule?
A: The value was “more effective than the monomer 123B9; also recorded: orders of magnitude more effective than 123B9 in causing EphA2 degradation and suppressing oncogenic pSer897-EphA2”.

Q: With CC(C)[C@H](NC(=O)[C@H](CO)NC(=O)[C@H](CC(=O)O)NC(=O)[C@@H]1CCCN1C(=O)[C@H](Cc1ccc(O)cc1)NC(=O)[C@H](C)NC(=O)[C@H](CO)NC(=O)COc1ccc(F)c(Cl)c1)C(=O)N1C[C@H](O)C[C@H]1C(=O)N[C@@H](Cc1ccc(Cl)cc1)C(=O)N[C@@H](CCCNC(=N)N)C(=O)N1CCC[C@H]1C(N)=O [135G3, (4F,3ClPhOCH2CO)SAYPDSV(Hyp)(4ClPhe)RP-CONH2] as the molecule, how does the “induction of EphA2 receptor phosphorylation” value (EphA2 [6]) read?
A: The value was “remarkably increased cellular activity in inducing tyrosine receptor phosphorylation compared to YSA”.

Q: With “(7-MethoxyBenzofuranoic)LAYPDAVP-Dap(4-FSB)-RP-CONH2 ({7‑MethoxyBenzofuranoic}-LAYPDAVP[Dap(4-FSB)]RP-NH2; SMILES COc1cccc2cc(C(=O)N[C@@H](CC(C)C)C(=O)N[C@@H](C)C(=O)N[C@@H](Cc3ccc(O)cc3)C(=O)N3CCC[C@H]3C(=O)N[C@@H](CC(=O)O)C(=O)N[C@@H](C)C(=O)N[C@H](C(=O)N3CCC[C@H]3C(=O)N[C@@H](CNC(=O)c3ccc(S(=O)(=O)F)cc3)C(=O)N[C@@H](CCCNC(=N)N)C(=O)N3CCC[C@H]3C(N)=O)C(C)C)oc12) [147A5]” as the molecule, how does the “covalent adduct formation with EphA2” value (EphA2 [7]) read?
A: Its value is “confirmed”.

Q: With “(7-MethoxyBenzofuranoic)LAYPDAVP-Dap(3-FSB)-RP-CONH2 ({7‑MethoxyBenzofuranoic}-LAYPDAVP[Dap(3-FSB)]RP-NH2) [147A6]” as the molecule, how does the “covalent adduct formation with EphA2” value (EphA2 [7]) read?
A: The value was “confirmed”.

B1: ephrinA1-Fc: clustered natural ligand and used as a positive control (protein)
chain: DRHIVFWNSSNPKFREEDYTVHVQLNDYLDIICPHYEDDSVADAAMERYTLYMVEHQEYVACQPQSKDQVRWNCNRPSAKHGPEKLSEKFQRFTPFILGKEFKEGHSYYYISKPIYHQESQCLKLKVTVNGKITHNPQAHVNPQEKRLQADDPEVQVLHSIGYS
modifications: left off: a dimerising Fc or GST
notes: clustered natural ligand and used as a positive control
Q: Which EphA2 cellular localization (EphA2 [5]) does the source give for B1 here?
A: The EphA2 cellular localization was “punctuated fluorescence was observed in the cytoplasm”.
